According to the NIST ThermoML archive (doi:10.1021/je800330d):
± gives the expanded uncertainty stated by the source.

Key:
[1] = 101 kPa, Liquid, Capillary tube (Ostwald / Ubbelohde) method
[2] = mn = molality of the nth substance listed, in mol/kg; settings: 101 kPa, Liquid, Capillary tube (Ostwald / Ubbelohde) method
[3] = xn = mol fraction of the nth substance listed; settings: 101 kPa, Liquid, Capillary tube (Ostwald / Ubbelohde) method

Structure (SMILES) | viscosity ([2]; 298.15 K, m1 = 0.0081) [mPa·s] | viscosity ([2]; 298.15 K, m1 = 0.0099) [mPa·s] | viscosity ([2]; 298.15 K, m1 = 0.0201) [mPa·s] | viscosity ([2]; 298.15 K, m1 = 0.0402) [mPa·s] | viscosity ([2]; 298.15 K, m1 = 0.0599) [mPa·s] | viscosity ([2]; 298.15 K, m1 = 0.0802) [mPa·s] | viscosity ([2]; 298.15 K, m1 = 0.1) [mPa·s] | viscosity ([2]; 308.15 K, m1 = 0.0081) [mPa·s] | viscosity ([2]; 308.15 K, m1 = 0.0099) [mPa·s] | viscosity ([2]; 308.15 K, m1 = 0.0201) [mPa·s] | viscosity ([2]; 308.15 K, m1 = 0.0402) [mPa·s] | viscosity ([2]; 308.15 K, m1 = 0.0599) [mPa·s] | viscosity ([2]; 308.15 K, m1 = 0.0802) [mPa·s] | viscosity ([2]; 308.15 K, m1 = 0.1) [mPa·s] | further results
O [water] | – | – | – | – | – | – | – | – | – | – | – | – | – | – | viscosity ([1]; 298.15 K): 0.89 ± 0.011 mPa·s; viscosity ([1]; 308.15 K): 0.719 ± 0.009 mPa·s
O=S(=O)([O-])[O-].O=S(=O)([O-])[O-].O=S(=O)([O-])[O-].[Al+3].[Al+3] [aluminum sulfate] + O | 0.904 ± 0.012 | 0.908 ± 0.012 | 0.927 ± 0.012 | 0.967 ± 0.012 | 1.008 ± 0.013 | 1.05 ± 0.013 | 1.093 ± 0.014 | 0.729 ± 0.01 | 0.732 ± 0.01 | 0.747 ± 0.01 | 0.777 ± 0.01 | 0.807 ± 0.01 | 0.839 ± 0.011 | 0.87 ± 0.011 | –
N.N.O=S(=O)(O)O [ammonium sulfate] + O | 0.897 ± 0.012 | 0.898 ± 0.012 | 0.902 ± 0.012 | 0.908 ± 0.012 | 0.913 ± 0.012 | 0.918 ± 0.012 | 0.922 ± 0.012 | 0.725 ± 0.009 | 0.726 ± 0.009 | 0.729 ± 0.01 | 0.735 ± 0.01 | 0.74 ± 0.01 | 0.744 ± 0.01 | 0.748 ± 0.01 | –
CN(C)C=O [dimethylformamide] + O | – | – | – | – | – | – | – | – | – | – | – | – | – | – | viscosity ([3]; 298.15 K, x1 = 0.05): 1.002 ± 0.013 mPa·s; viscosity ([3]; 298.15 K, x1 = 0.1): 1.126 ± 0.014 mPa·s; viscosity ([3]; 298.15 K, x1 = 0.15): 1.258 ± 0.016 mPa·s; viscosity ([3]; 298.15 K, x1 = 0.2): 1.391 ± 0.018 mPa·s; viscosity ([3]; 308.15 K, x1 = 0.05): 0.797 ± 0.01 mPa·s; viscosity ([3]; 308.15 K, x1 = 0.1): 0.891 ± 0.011 mPa·s; viscosity ([3]; 308.15 K, x1 = 0.15): 0.984 ± 0.013 mPa·s; viscosity ([3]; 308.15 K, x1 = 0.2): 1.08 ± 0.014 mPa·s
O=S(=O)([O-])[O-].[K+].[K+] [potassium sulfate] + O | 0.895 ± 0.012 | 0.896 ± 0.012 | 0.899 ± 0.012 | 0.905 ± 0.012 | 0.909 ± 0.012 | 0.914 ± 0.012 | 0.918 ± 0.012 | 0.723 ± 0.009 | 0.724 ± 0.009 | 0.727 ± 0.009 | 0.732 ± 0.01 | 0.737 ± 0.01 | 0.742 ± 0.01 | 0.746 ± 0.01 | –
